Measurements published in US20240033224A1, “ENTERIC-COATED PELLET, METHOD FOR PREPARING SAME AND FORMULATION COMPRISING SAME” (LIVZON PHARMACEUTICAL GROUP INC., priority 2020, published 2024).

Experiment: Stability of prazole starting materials in phosphate buffer media at pH 6.8 and 8.0
Protocol: Phosphate buffer media at pH 6.8 and 8.0 containing 0.5% w/w of sodium dodecyl sulfate were prepared, added into dissolution cups, with 1000 mL per cup. 0.5 mg of each of ilaprazole, omeprazole magnesium, esomeprazole magnesium, rabeprazole sodium, pantoprazole and lansoprazole was weighed and added into the dissolution cups, stirred at 150 rpm by a paddle method to ensure that the prazole starting materials sank into the media and dissolved therein. 5 mL of each of the samples was collected at 15 min, 30 min, 45 min and 60 min respectively, and added to 20 mL of sodium hydroxide stabilization medium, and then the volume was made up to 50 mL with the mobile phase.
The collected sample content in the media was determined according to the determination method of omeprazole magnesium, esomeprazole magnesium, rabeprazole sodium, pantoprazole sodium and lansoprazole in the Chinese Pharmacopoeia (Volume II, 2015 Edition) so as to determine the stability of the prazoles in the media at pH 6.8 and 8.0.

[1] = buffer, 0.25 h, 0.5 µg/mL, pH 6.8
[2] = buffer, 0.25 h, 0.5 µg/mL, pH 8
[3] = buffer, 0.5 h, 0.5 µg/mL, pH 6.8
[4] = buffer, 0.75 h, 0.5 µg/mL, pH 6.8
[5] = buffer, 0.75 h, 0.5 µg/mL, pH 8

remaining amount after the degradation (buffer, 0 h, 0.5 µg/mL, pH 6.8) [%] | remaining amount after the degradation (buffer, 0 h, 0.5 µg/mL, pH 8) [%] | remaining amount after the degradation [1] [%] | remaining amount after the degradation [2] [%] | remaining amount after the degradation [3] [%] | remaining amount after the degradation (buffer, 0.5 h, 0.5 µg/mL, pH 8) [%] | remaining amount after the degradation [4] [%] | remaining amount after the degradation [5] [%] | remaining amount after the degradation (buffer, 1 h, 0.5 µg/mL, pH 6.8) [%] | remaining amount after the degradation (buffer, 1 h, 0.5 µg/mL, pH 8) [%] | Structure (SMILES) | stability in medium at pH 6.8 compared between prazoles (pH 6.8) | other results
– | – | – | – | – | – | – | – | – | – | COc1ccc2[n-]c([S+]([O-])Cc3ncc(C)c(OC)c3C)nc2c1.COc1ccc2[n-]c([S+]([O-])Cc3ncc(C)c(OC)c3C)nc2c1.[Mg+2] (stereo not drawn) [Esomeprazole magnesium, esomeprazole magnesium] | the best | remaining amount after the degradation (medium at pH 6.8, 15 min): 89.6%; remaining amount after the degradation (medium at pH 6.8, 30 min): 70.9%; remaining amount after the degradation (medium at pH 6.8, 45 min): 56.0%; remaining amount after the degradation (medium at pH 6.8, 60 min): 41.4%; remaining amount after the degradation (medium at pH 8.0, 15 min): 99.2%; remaining amount after the degradation (medium at pH 8.0, 30 min): 98.6%; remaining amount after the degradation (medium at pH 8.0, 45 min): 97.6%; remaining amount after the degradation (medium at pH 8.0, 60 min): 96.4%
100.0 | 100.0 | 59.7 | 94.3 | 42.7 | 91.5 | 29.4 | 88.6 | 20.7 | 84.6 | COc1ccnc(C[S+]([O-])c2nc3cc(-n4cccc4)ccc3[nH]2)c1C (stereo not drawn) [Ilaprazole, ilaprazole] | the worst | –
100.0 | 100.0 | 85.7 | 98.7 | 70.2 | 96.2 | 53.6 | 95.3 | 38.6 | 93.5 | Cc1c(OCC(F)(F)F)ccnc1C[S+]([O-])c1nc2ccccc2[nH]1 (stereo not drawn) [Lansoprazole, lansoprazole] | – | –
– | – | – | – | – | – | – | – | – | – | COc1ccc2[n-]c([S+]([O-])Cc3ncc(C)c(OC)c3C)nc2c1.COc1ccc2[n-]c([S+]([O-])Cc3ncc(C)c(OC)c3C)nc2c1.[Mg+2] (stereo not drawn) [Omeprazole magnesium, omeprazole magnesium] | – | remaining amount after the degradation (buffer, 0 h, pH 6.8): 100.0%; remaining amount after the degradation (buffer, 0 h, pH 8): 100.0%; remaining amount after the degradation (buffer, 0.25 h, pH 6.8): 81.2%; remaining amount after the degradation (buffer, 0.25 h, pH 8): 98.2%; remaining amount after the degradation (buffer, 0.5 h, pH 6.8): 66.7%; remaining amount after the degradation (buffer, 0.5 h, pH 8): 95.4%; remaining amount after the degradation (buffer, 0.75 h, pH 6.8): 47.4%; remaining amount after the degradation (buffer, 0.75 h, pH 8): 96.3%; remaining amount after the degradation (buffer, 1 h, pH 6.8): 29.2%; remaining amount after the degradation (buffer, 1 h, pH 8): 91.2%
100.0 | 100.0 | 83.6 | 98.6 | 65.9 | 95.9 | 50.2 | 92.2 | 35.4 | 91.4 | COc1ccnc(C[S+]([O-])c2nc3ccc(OC(F)F)cc3[nH]2)c1OC (stereo not drawn) [Pantoprazole sodium, pantoprazole sodium] | – | –
100.0 | 100.0 | 70.3 | 97.3 | 51.5 | 93.5 | 38.6 | 90.6 | 24.6 | 88.5 | COCCCOc1ccnc(C[S+]([O-])c2nc3ccccc3[nH]2)c1C (stereo not drawn) [Rabeprazole sodium, rabeprazole sodium] | – | –
